Source: BindingDB's records for doi:10.1016/j.bmc.2008.10.023 (Polymer Functionalization Group (Ictp, Csic), 2008)

Molecular target: Peroxisome proliferator-activated receptor alpha (Homo sapiens) (UniProt Q07869)
Assay: Agonist activity at human PPARalpha expressed in human MCF7 cells coexpressing TIF2 by luciferase reporter gene assay

Sequence of Peroxisome proliferator-activated receptor alpha (Homo sapiens) (Q07869 whole entry, looked up): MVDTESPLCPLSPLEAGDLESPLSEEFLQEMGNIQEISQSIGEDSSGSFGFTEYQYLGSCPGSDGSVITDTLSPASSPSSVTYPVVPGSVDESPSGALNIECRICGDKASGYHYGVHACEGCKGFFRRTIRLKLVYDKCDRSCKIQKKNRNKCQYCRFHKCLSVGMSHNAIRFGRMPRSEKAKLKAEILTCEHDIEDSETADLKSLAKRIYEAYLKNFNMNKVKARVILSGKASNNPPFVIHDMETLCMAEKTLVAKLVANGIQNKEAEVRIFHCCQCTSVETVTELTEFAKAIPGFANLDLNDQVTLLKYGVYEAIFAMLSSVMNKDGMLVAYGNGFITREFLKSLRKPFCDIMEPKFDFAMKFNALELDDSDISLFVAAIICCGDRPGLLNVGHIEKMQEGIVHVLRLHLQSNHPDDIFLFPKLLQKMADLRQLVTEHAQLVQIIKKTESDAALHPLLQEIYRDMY

With CCCCCCCC/C=C\CCCCCCCCNC(=O)c1nn(-c2ccc(Cl)cc2Cl)c(-c2ccc(Cl)cc2)c1C the EC50 was 467 nM.
CCCCCCCC/C=C\CCCCCCCCNC(=O)c1cc(-c2ccc(Cl)cc2)n(-c2ccc(Cl)cc2Cl)n1 was tested, and the EC50 was 223 nM.
CCCCCCCC/C=C\CCCCCCCCNC(=O)c1cc(-c2ccc(Cl)cc2)n(-c2ccc(Cl)cc2)n1 was tested, and the EC50 was 524 nM.
CCCCCCCCCCCCCCCCNC(=O)c1nn(-c2ccc(Cl)cc2Cl)c(-c2ccc(Cl)cc2)c1C was tested, and the EC50 was over 10000 nM.
Work on CCCCCCCCCCCCCCCCNC(=O)c1cc(-c2ccc(Cl)cc2)n(-c2ccc(Cl)cc2Cl)n1 yielded an EC50 of over 10000 nM.
Molecule CCCCCCCC/C=C\CCCCCCCCNC(=O)c1cc(-c2ccc(Cl)cc2)n(-c2ccccc2)n1 has an EC50 of 183 nM.
Work on CCCCCCCCCCCCCCCCNC(=O)c1cc(-c2ccc(Cl)cc2)n(-c2ccccc2)n1 yielded an EC50 of over 10000 nM.
CCCCCCCCCCCCCCCCNC(=O)c1cc(-c2ccc(Cl)cc2)n(-c2ccc(Cl)cc2)n1 was tested, and the EC50 was over 10000 nM.
